From patent US4254128A, “2-Adamantyl hydrazines and biocidal compositions thereof” (Teva Pharmaceutical Industries Ltd., priority 1977, dated 1981)
Structures can show the parent of a compound that is named as a salt.

Assays:
albino mice [1] = assay: Stereotyped behaviour in mice; assay type: in vivo, Male ICR albino mice; set-up: stereotyped behaviour score / Total Score / Mean Score: scale not given here; conditions: for stereotyped behaviour score / Mean Score / Total Score: 50 mg/kg i.p.; for Mean Score: mean of 4 mice; for stereotyped behaviour activity: summary in words
Description: Male ICR albino mice weighing 25-30 g were put in cages with a metal grid floor, 4 in each cage. Drugs were injected intraperitoneally and stereotyped behaviour (sniffing, biting, repetitive head movement) was evaluated every 30 min.

L. tropica promastigotes = assay: Anti leishmania test, promastigotes in vitro; assay type: cell-based; conditions: 27° C.
Description: (§1) b. promastigotes in Mc Coy's medium in vitro at 27° C.
+++=No viable parasites after 24 hours
++=No viable parasites after 48 hours
+=No viable parasites after 72 hours
±=No viable parasites after 96 hours p2 -=viable parasites after 120 hours.

Leishmania = assay: Anti leishmania tests, summary; assay type: cell-based, L. tropica; conditions: summary in words
Description: (§2) a. amastigotes in peritoneal exudate cells in Mc Coy's medium in vitro at 37° C.
as §1

albino mice [2] = assay: Stereotyped behaviour in mice; assay type: in vivo, Male ICR albino mice; set-up: scale not given here; conditions: 50 mg/kg i.p.
HSV-1 (Herpes Simplex) = assay: Inhibition test on HSV replication; assay type: cell-based; conditions: Human alphaherpesvirus 1, BSC-1 cells, 10 PFU/cell; for inhibition at 25 µg/mL: 25 μg/ml; for inhibition at 50 µg/mL: 50 μg/ml, read-out: % Inhibition; for inhibition at 100 µg/mL: 100 μg/ml
Excerpt: BSC-1 (Green monkey kidney)
**% Inhibition of control infected for some time with same virus PFV with […]

albino rats = assay: Antiparkinson activity (catalepsy produced by haloperidol); assay type: in vivo, Male Charles River albino rats; conditions: for antiparkinson activity: summary in words
Description: Male Charles River albino rats, weighing 200-250 g, were used. Catalepsy was produced by haloperidol, 5 mg/kg i.p. The animals were placed with their front paws on a horizontal bar, about 10 cm above the ground, and animals were considered cataleptic if not changing posture for at least 30 sec. Cataleptic animals were injected i.p. with one of the drugs at a dose of 40-80 mg/kg. Catalepsy was estimated again at the intervals indicated.

[3] = Toxic limit in the HSV replication test; conditions: monkey, bsc-1 cells
L. tropica amastigotes = assay: Anti leishmania test, amastigotes in peritoneal exudate cells in vitro; assay type: cell-based; conditions: 37° C.
Description: as §2
+++=clearance of all parasites in 24 hours
++=clearance of all parasites in 48 hours
+=clearance of all parasites in 72 hours
±=Partial clearance of parasites in 72 hours or more
-=No activity against parasites.

[4] = system: Leptospira canicola Kipod 146; assay: Anti leptospiral activity (minimal inhibition concentration); assay type: cell-based; conditions: for MIC: Leptospira interrogans, KIPOD146, 240 h; for anti leptospiral activity: summary in words
Description: The tests were carried out under the following conditions:
Leptospira: Leptospira canicola Kipod 146
Inoculum: 1-10^5 cells/ml
Incubation time: 10 days, 28° C.
Evaluation: Direct count in dark field microscopy after 4,7 and 10 days.
2 Minimal+0.5% albumin (Pentex)
3 Korthof rich medium with 8% serum.
4 Korthof rich medium with 2% serum.

[5] = system: 4 mycoplasma (M. gallisepticum, M. capricolum, M. hominis, A. laidlawii); assay: organism not typed; assay type: cell-based; conditions: read-out: 50% inhibition of growth

## CN(N)C1C2CC3CC(C2)CC1C3 (stereo not shown) [Example 27, 1-(2'-Adamantyl)-1-methylhydrazine hydrochloride]
Albino mice [1]; 0 min, mouse 1
  stereotyped behaviour score: 0
Albino mice [1]; 0 min, mouse 2
  stereotyped behaviour score: 0
Albino mice [1]; 0 min, mouse 3
  stereotyped behaviour score: 0
Albino mice [1]; 0 min, mouse 4
  stereotyped behaviour score: 0
Albino mice [1]; 30 min, mouse 1
  stereotyped behaviour score: 0
Albino mice [1]; 30 min, mouse 2
  stereotyped behaviour score: 0
Albino mice [1]; 30 min, mouse 3
  stereotyped behaviour score: 1
Albino mice [1]; 30 min, mouse 4
  stereotyped behaviour score: 0
Albino mice [1]; 45 min, mouse 3
  stereotyped behaviour score: 1
Albino mice [1]; 45 min, mouse 4
  stereotyped behaviour score: 1
Albino mice [1]; 60 min, mouse 1
  stereotyped behaviour score: 2
Albino mice [1]; 60 min, mouse 2
  stereotyped behaviour score: 2
Albino mice [1]; 60 min, mouse 3
  stereotyped behaviour score: 2
Albino mice [1]; 60 min, mouse 4
  stereotyped behaviour score: 2
Albino mice [1]; 90 min, mouse 1
  stereotyped behaviour score: 2
Albino mice [1]; 90 min, mouse 2
  stereotyped behaviour score: 2
Albino mice [1]; 90 min, mouse 3
  stereotyped behaviour score: 2
Albino mice [1]; 90 min, mouse 4
  stereotyped behaviour score: 2
Albino mice [1]; 120 min, mouse 1
  stereotyped behaviour score: 1
Albino mice [1]; 120 min, mouse 2
  stereotyped behaviour score: 1
Albino mice [1]; 120 min, mouse 3
  stereotyped behaviour score: 0
Albino mice [1]; 120 min, mouse 4
  stereotyped behaviour score: 0
Albino mice [1]; 135 min, mouse 1
  stereotyped behaviour score: 1
Albino mice [1]; 135 min, mouse 2
  stereotyped behaviour score: 1
Albino mice [1]; 150 min, mouse 1
  stereotyped behaviour score: 1
Albino mice [1]; 150 min, mouse 2
  stereotyped behaviour score: 1
Albino mice [1]; 150 min, mouse 3
  stereotyped behaviour score: 0
Albino mice [1]; 150 min, mouse 4
  stereotyped behaviour score: 0
Albino mice [1]; 180 min, mouse 1
  stereotyped behaviour score: 0
Albino mice [1]; 180 min, mouse 2
  stereotyped behaviour score: 0
Albino mice [1]; 180 min, mouse 3
  stereotyped behaviour score: 0
Albino mice [1]; 180 min, mouse 4
  stereotyped behaviour score: 0
Albino mice [1]; 210 min, mouse 1
  stereotyped behaviour score: 0
Albino mice [1]; 210 min, mouse 2
  stereotyped behaviour score: 1
Albino mice [1]; 210 min, mouse 3
  stereotyped behaviour score: 0
Albino mice [1]; 210 min, mouse 4
  stereotyped behaviour score: 0
Albino mice [1]; 240 min, mouse 1
  stereotyped behaviour score: 0
Albino mice [1]; 240 min, mouse 2
  stereotyped behaviour score: 0
Albino mice [1]; 240 min, mouse 3
  stereotyped behaviour score: 0
Albino mice [1]; 240 min, mouse 4
  stereotyped behaviour score: 0
Albino mice [1]
  Mean Score: 6.5
  stereotyped behaviour activity: active
Albino mice [1]; mouse 1
  Total Score: 7
Albino mice [1]; mouse 2
  Total Score: 9
Albino mice [1]; mouse 3
  Total Score: 6
Albino mice [1]; mouse 4
  Total Score: 5
L. tropica promastigotes; 100 μg
  Leishmania promastigote activity score: +++ (No viable parasites after 24 hours)
Leishmania
  activity against Leishmania: active
Albino mice [2]; 45 min, mouse 1
  stereotyped behaviour score: 0
Albino mice [2]; 45 min, mouse 2
  stereotyped behaviour score: 1
Albino mice [2]; 135 min, mouse 3
  stereotyped behaviour score: 0
Albino mice [2]; 135 min, mouse 4
  stereotyped behaviour score: 0
HSV-1 (Herpes Simplex)
  inhibition at 25 µg/mL: 46%
  inhibition at 50 µg/mL: 81%
  inhibition at 100 µg/mL: 100%
Albino rats; 80 mg/kg i.p., rat 1
  anticataleptic effect: 3/4
Albino rats; 80 mg/kg i.p., rat 2
  anticataleptic effect: 1/4
Albino rats; 80 mg/kg i.p., rat 3
  anticataleptic effect: 2/4
Albino rats; 80 mg/kg i.p., rat 4
  anticataleptic effect: 3/4
Albino rats; 80 mg/kg i.p., rat 5
  anticataleptic effect: 4/4
Albino rats
  antiparkinson activity: active
[3]
  MNTC: 100 µg/mL
L. tropica amastigotes; 10 μg
  Leishmania amastigote activity score: ± (Partial clearance of parasites in 72 hours or more)
L. tropica amastigotes; 100 μg
  Leishmania amastigote activity score: ++ (clearance of all parasites in 48 hours)
[4]; Korthof + 8% serum
  MIC: 50 µg/mL
[4]; minimal + Pentex (0.5% albumin)
  MIC: 6.25 µg/mL
[4]; minimal medium
  MIC: 3.12 µg/mL
[4]
  anti leptospiral activity: active

## c1ccc(CCNNC2C3CC4CC(C3)CC2C4)cc1 (stereo not shown) [Example 2, 1-(2'-Adamantyl)-2-phenethylhydrazine hydrochloride]
[5]
  IC50: 5 to 30 µg/mL

## O=C(O)CNNC1C2CC3CC(C2)CC1C3 (stereo not shown) [Example 36, [2-(2'-adamantyl)hydrazino]acetic acid hydrochloride]
L. tropica promastigotes; 100 μg
  Leishmania promastigote activity score: ++ (No viable parasites after 48 hours)
Leishmania
  activity against Leishmania: active
HSV-1 (Herpes Simplex)
  inhibition at 50 µg/mL: 0%
  inhibition at 100 µg/mL: 0%
HSV-1 (Herpes Simplex); 200 μg/ml
  inhibition at 200 µg/mL: 98%
Albino rats; 80 mg/kg i.p., rat 1
  anticataleptic effect: 2/4
Albino rats; 80 mg/kg i.p., rat 2
  anticataleptic effect: 1/4
Albino rats; 80 mg/kg i.p., rat 3
  anticataleptic effect: 3/4
Albino rats; 80 mg/kg i.p., rat 4
  anticataleptic effect: 2/4
Albino rats; 80 mg/kg i.p., rat 5
  anticataleptic effect: 0/4
Albino rats
  antiparkinson activity: active
[3]
  MNTC: 200 µg/mL
L. tropica amastigotes; 100 μg
  Leishmania amastigote activity score: ++ (clearance of all parasites in 48 hours)

## c1ccc(CN2CCN(NC3C4CC5CC(C4)CC3C5)CC2)cc1 (stereo not shown) [Example 16, 1-(2'-Adamantylamino)-4-benzylpiperazine dihydrochloridemonohydrate]
L. tropica promastigotes; 10 μg
  Leishmania promastigote activity score: +++ (No viable parasites after 24 hours)
L. tropica promastigotes; 100 μg
  Leishmania promastigote activity score: +++ (No viable parasites after 24 hours)
Leishmania
  activity against Leishmania: active
[5]
  IC50: 5 to 30 µg/mL

## C1CCN(NC2C3CC4CC(C3)CC2C4)CC1 (stereo not shown) [Example 10, 1-(2'-Adamantylamino)piperidine hydrochloride]
Albino mice [1]; 0 min, mouse 1
  stereotyped behaviour score: 0
Albino mice [1]; 0 min, mouse 2
  stereotyped behaviour score: 0
Albino mice [1]; 0 min, mouse 3
  stereotyped behaviour score: 0
Albino mice [1]; 0 min, mouse 4
  stereotyped behaviour score: 0
Albino mice [1]; 30 min, mouse 1
  stereotyped behaviour score: 1
Albino mice [1]; 30 min, mouse 2
  stereotyped behaviour score: 1
Albino mice [1]; 30 min, mouse 3
  stereotyped behaviour score: 1
Albino mice [1]; 30 min, mouse 4
  stereotyped behaviour score: 1
Albino mice [1]; 45 min, mouse 3
  stereotyped behaviour score: 1
Albino mice [1]; 45 min, mouse 4
  stereotyped behaviour score: 0
Albino mice [1]; 60 min, mouse 1
  stereotyped behaviour score: 1
Albino mice [1]; 60 min, mouse 2
  stereotyped behaviour score: 1
Albino mice [1]; 60 min, mouse 3
  stereotyped behaviour score: 1
Albino mice [1]; 60 min, mouse 4
  stereotyped behaviour score: 1
Albino mice [1]; 90 min, mouse 1
  stereotyped behaviour score: 1
Albino mice [1]; 90 min, mouse 2
  stereotyped behaviour score: 1
Albino mice [1]; 90 min, mouse 3
  stereotyped behaviour score: 1
Albino mice [1]; 90 min, mouse 4
  stereotyped behaviour score: 1
Albino mice [1]; 120 min, mouse 1
  stereotyped behaviour score: 0
Albino mice [1]; 120 min, mouse 2
  stereotyped behaviour score: 0
Albino mice [1]; 120 min, mouse 3
  stereotyped behaviour score: 0
Albino mice [1]; 120 min, mouse 4
  stereotyped behaviour score: 0
Albino mice [1]; 135 min, mouse 1
  stereotyped behaviour score: 0
Albino mice [1]; 135 min, mouse 2
  stereotyped behaviour score: 0
Albino mice [1]; 150 min, mouse 1
  stereotyped behaviour score: 0
Albino mice [1]; 150 min, mouse 2
  stereotyped behaviour score: 0
Albino mice [1]; 150 min, mouse 3
  stereotyped behaviour score: 0
Albino mice [1]; 150 min, mouse 4
  stereotyped behaviour score: 0
Albino mice [1]; 180 min, mouse 1
  stereotyped behaviour score: 1
Albino mice [1]; 180 min, mouse 2
  stereotyped behaviour score: 1
Albino mice [1]; 180 min, mouse 3
  stereotyped behaviour score: 0
Albino mice [1]; 180 min, mouse 4
  stereotyped behaviour score: 0
Albino mice [1]; 210 min, mouse 1
  stereotyped behaviour score: 1
Albino mice [1]; 210 min, mouse 2
  stereotyped behaviour score: 0
Albino mice [1]; 210 min, mouse 3
  stereotyped behaviour score: 0
Albino mice [1]; 210 min, mouse 4
  stereotyped behaviour score: 0
Albino mice [1]; 240 min, mouse 1
  stereotyped behaviour score: 0
Albino mice [1]; 240 min, mouse 2
  stereotyped behaviour score: 0
Albino mice [1]; 240 min, mouse 3
  stereotyped behaviour score: 0
Albino mice [1]; 240 min, mouse 4
  stereotyped behaviour score: 0
Albino mice [1]
  Mean Score: 4.75
  stereotyped behaviour activity: active
Albino mice [1]; mouse 1
  Total Score: 6
Albino mice [1]; mouse 2
  Total Score: 6
Albino mice [1]; mouse 3
  Total Score: 4
Albino mice [1]; mouse 4
  Total Score: 3
Albino mice [2]; 45 min, mouse 1
  stereotyped behaviour score: 1
Albino mice [2]; 45 min, mouse 2
  stereotyped behaviour score: 2
Albino mice [2]; 135 min, mouse 3
  stereotyped behaviour score: 0
Albino mice [2]; 135 min, mouse 4
  stereotyped behaviour score: 0
HSV-1 (Herpes Simplex); 10 μg/ml
  inhibition at 10 µg/mL: 50%
HSV-1 (Herpes Simplex)
  inhibition at 25 µg/mL: 40%
  inhibition at 50 µg/mL: 96%
Albino rats; 80 mg/kg i.p., mean of 5 rats
  Mean maximal effect: 1/4
Albino rats; 80 mg/kg i.p., rat 1
  anticataleptic effect: 0/4
Albino rats; 80 mg/kg i.p., rat 2
  anticataleptic effect: 1/4
Albino rats; 80 mg/kg i.p., rat 3
  anticataleptic effect: 0/4
Albino rats; 80 mg/kg i.p., rat 4
  anticataleptic effect: 1/4
Albino rats; 80 mg/kg i.p., rat 5
  anticataleptic effect: 3/4
Albino rats
  antiparkinson activity: active
[3]
  MNTC: 50 µg/mL
[4]; Korthof + 8% serum
  MIC: 100 µg/mL
[4]; minimal medium
  MIC: 12.5 µg/mL
[4]
  anti leptospiral activity: active
[5]
  IC50: 5 to 30 µg/mL
